Laboratory results reported in patent US20100183714A1, “GASTRORESISTANT PHARMACEUTICAL DOSAGE FORM COMPRISING N-(2-(2- PHTHALIMIDOETHOXY)-ACETYL)-L-ALANYL-D-GLUTAMIC ACID (LK-423)” (priority 2004, published 2010).

Tested on: ulcerative changes of the ileum, caecum and colon
Experiment: Antiulcerative action in vivo, DSS-induced ulcerative changes in rats
Settings: 75 mg/kg orally
Excerpt: Ulcerative changes of ileum, caecum and colon in rats were developed in five days by drinking water containing 2% of sodium dextran sulphate (DSS).
DSS is the compound which after oral administration in an aqueous solution induces inflammatory and ulcerative changes in the mucosa of ileum, caecum and colon in animals.
The animals were randomly assigned to the individual groups.
From experiment day 6 onward the animals were drinking water with 1% DSS. The animals in Group A received the pure compound LK 423 in a dose of 75 mg/kg. The pure compound LK 423 was prepared as suspension in 1% gelatin (Gelatin GE0020, Scharlau) and was given orally via the tube in a volume of 1 ml.
In Group B the animals received the microcapsules comprising LK 423 in a dose of 75 mg/kg (as prepared in Example 1). The microcapsules comprising LK 423 were given orally via the tube dispersed in 1.5 to 2 ml 1% of gelatin.
At baseline the rats had body weight from 220 to 250 g. […] At baseline and on days 6 and 12 the body weight was recorded. For determination of the hematology parameters 1.5 ml blood samples were taken from the periorbital sinus at baseline and on day 5 of the experiment and from the abdominal aorta on day 12. The erythrocyte count and hemoglobin and hematocrit values were performed in the clinical laboratory of the Institute for Health Protection of Ruminants, Faculty of Veterinary Science. […] Throughout the experiment survival of the animals, diarrhea and occurrence of blood in the feces or the intensity of bleeding were also observed. On day 12 the animals were sacrificed under deep ether anesthesia and post-mortem examination was performed. Macroscopic changes in the ileum, caecum and in the colon and the intensity of bleeding were observed.
At autopsy fragments of the intestine were taken from the animals and fixed in 10% formaldehyde; paraffin tissue sections were prepared and stained with hematoxylin and eosin. Pathohistological diagnosis was then performed.
In all groups (both control groups, group A and group B) (Table 3) the tissue damage and a reaction of the surrounding tissue to the damage (level of regeneration) as well as accompanying parameters of the scope of bleeding in the mucosa, hypertrophy of the mucosa with glandular hyperplasia and the degree of epithelialization of the damage surface were assessed. The criteria were as follows:
The Scope of Acute Bleeding with Respect to the Tissue and to the Diameter of the Field of View at 40-Fold Magnification (4 mm): • No bleeding—0 • Small bleeding in the propria and submucosa, with a diameter less than half of the field of view—1 • Moderate bleeding in the propria and submucosa, with a diameter to one half of the field of view—2 • Very extensive bleeding in the propria and submucosa with a diameter greater than half of the field of view—3 • Very extensive bleeding in the propria, submucosa, around the vessels in the tunica muscularis, tunica serosa, and in the supporting tissue—4 Regressive Process—Damage with a Defense Reaction of the Tissue: • No cellular response (no reaction) or the regressive process was no longer active—0 • Moderate cellular infiltration (monocytes, granulocytes, macrophage, histocytes) with karyorrhesis and pyknosis in the mucosa and the submucosa—1 • Severe diffuse cellular infiltration (monocytes, granulocytes, macrophage, histocytes) with karyorrhesis and pyknosis in the mucosa and the submucos—2 • Cellular infiltration (monocytes, granulocytes, macrophage, histocytes) in the demarcation line around the injury—3

C[C@H](NC(=O)COCCN1C(=O)c2ccccc2C1=O)C(=O)N[C@H](CCC(=O)O)C(=O)O [LK 423, N-(2-(2-phthalimidoethoxy)-acetyl)-L-alanyl-D-glutamic acid]
Blood in the feces: + | Mortality: 33% | Percent of bleeding animals, Caecum: 17 | Percent of bleeding animals, Colon: 17 | Percent of bleeding animals, Ileum: 17 | Difference of hematology values from day 0 to 12, Erythrocytes (decrease from baseline): 1.25 × 10^12/l | Difference of hematology values from day 0 to 12, Hematocrit (decrease from baseline): 6.74% | Difference of hematology values from day 0 to 12, Hemoglobin (decrease from baseline): 17.2 g/l | Level of bleeding in the mucosa (histological score): 0.6 | Cellular process in sacrificed animals, Epithelialization (histological score, day 12): 2.37 | Cellular process in sacrificed animals, Hypertrophy of the mucosa (histological score, day 12): 2.75 | Cellular process in sacrificed animals, Level of damage (histological score, day 12): 1.75 | Cellular process in sacrificed animals, Level of regeneration (histological score, day 12): 2.37 | regeneration of damages of the intestinal mucosa compared with both control groups (pathohistology): more rapid regeneration
